Experimental data as given in patent US20070134744A1, “Epothilone resistant cell lines” (priority 2000, published 2007).
Structures can show the parent of a compound that is named as a salt. Where two headings read alike, the source gives them in different places.

Tests used:
KB-8511 cells = assay type: cell-based, human; conditions: for resistance profile in words: KB-8511 vs parental KB-31; for RF (resistance factor: IC50 resistant cell line / IC50 parental KB-31): KB-8511 (Colch selected), 72 hrs, average of three experiments
Method: (§1) Data in Table 4 are gathered according to the following methods: Cells (1×10^3) are seeded in 96-well plates and allowed to adhere for 24 hrs. Compounds are then added as two-fold serial dilutions and incubation continued for an additional 72 hrs. Cell numbers at the beginning and at the end of the experiment are estimated by methylene blue staining of cellular protein mass according to conventional methods. The net mass increase of vehicle-treated cells is set as 100% growth. The IC50 is determined as the drug concentration that leads to half-maximal growth inhibition compared to the control. The resistance factor (RF) for a particular drug is calculated by dividing the IC50 determined on the resistant cell line by that determined on the parental KB-31 cells. Data are presented as average±standard deviation (SD) of three separate experiments, except na=not applicable (n<3). Colchicine-selected KB-8511 cells overexpressing P-glycoprotein served as a reference for the classical multi-drug-resistant phenotype.

315/sc5.9 cells = assay type: cell-based, human; conditions: for resistance profile in words: 315/sc5.9 vs parental KB-31; for RF (resistance factor: IC50 resistant cell line / IC50 parental KB-31): 315/sc5.9 (EpoB selected), 72 hrs, average of three experiments
Method: (§2) Anti-proliferative assays are performed basically as described (Meyer et al., Int. J. Cancer 43:851 (1989)). Briefly, cells are seeded at 1.5×10^3 cells/well into 96-well microtiter plates and allowed to adhere by incubation overnight. Compounds are added in serial dilutions on day 1. The plates are then incubated for an additional 3 days, after which the cells are fixed with 3.3% v/v glutaraldehyde, washed with water and stained with 0.05% w/v methylene blue according to conventional methods. After washing, the dye is eluted with 3% HCl and the optical density measured at 665 nm with a SpectraMax Plus (Molecular Devices, Sunnyvale, Calif.) according to manufacturers instructions. IC50 values are determined by mathematical curve-fitting using the SoftPro2.6.1 program (Molecular Devices, Sunnyvale, Calif.) using the formula (OD treated−OD start)/(OD control−OD start)×100. […] IC50 determinations with the cell line 298/D4/40 are performed in the presence of 40 nM epothilone A.
as §1

297/C5/0 cells = assay type: cell-based, human; conditions: for resistance profile in words: 297/C5/0 vs parental KB-31; for RF (resistance factor: IC50 resistant cell line / IC50 parental KB-31): 297/C5/0 (EpoA selected), 72 hrs, average of three experiments
Method: as §2, §1

298/D4/40 cells = assay type: cell-based, human; conditions: for resistance profile in words: 298/D4/40 vs parental KB-31; for RF (resistance factor: IC50 resistant cell line / IC50 parental KB-31): 298/D4/40 (EpoA selected), 72 hrs, in the presence of 40 nM epothilone A
Method: as §2, §1

MDA-MB-435 cells = assay: MTS growth inhibition assay; assay type: cell-based; conditions: Homo sapiens, P-gp substrates, Table 2
Method: (§3) Growth inhibition may be analyzed using conventional methods, for example a MTS assay (PROMEGA, Wis.) may be used. In this assay approximately 4000 cells per well are seeded in 96 well plates in MEM supplemented with 10% fetal calf serum and incubated at 37° C. in 5.0% CO2. After 24 hours, dilutions of drug (concentration range used is between 1 nM and 1000 nM) are added and cells are allowed to incubate with drug for an additional 72 hours. The MTS reagent mixed with PMS (MTS:PMS 20:1 according to manufacturer's instructions) is then added and absorbance quantitated using a Thermomax microplate reader system according to conventional methods (Molecular Devices, Sunnyvale, Calif.). […] Six assays per drug per plate are performed.
Thus, at least two potential mechanisms of epothilone A resistance may exist—a lower resistance mechanism that is cross-resistant to TAXOL® and a higher, epothilone A specific resistance mechanism.

MDA/T0.3 cells = assay: MTS growth inhibition assay; assay type: cell-based
Method: as §3, with “After 24 hours, dilutions of drug (concentration range used is between 1 nM and 1000 nM) are added and cells are allowed to incubate with drug for an additional 72 hours.” left out
(§4) As such, epothilone resistant cells would have some degree of cross-resistance to other P-gp substrates that could be reversed by P-gp inhibitors. To investigate this possibility, the cytotoxicity of the P-gp substrates, vincristine, doxorubicine and vinblastine is determined against epothilone A resistant cells using the MTS assay. […] When EA20 and resistant MDA/T0.3 cells are incubated with TAXOL® or epothilone A in the presence of [3′-Desoxy-3′-oxo-MeBmt]^1-[Val]^2-Ciclosporin (PSC-833; a P-gp inhibitor which is disclosed in U.S. Pat. No. 5,525,590), the resistance of MDA/T0.3 cells to TAXOL® is reversed but no effect on the resistance of EA20 to epothilone A is observed.
MDA/T0.3 is a clonal subline of MDA-MB-435 cells selected by increasing exposure of MDA-MB-435 cells to TAXOL®. MDA/T0.3 cells express high levels of P-glycoprotein and are resistant to a variety of chemically and functionally unrelated compounds. MDA/T0.3 cells could be sensitized to a variety of cytotoxic agents by treatment with the P-glycoprotein reversing agent PSC-833.

EA40 cells = assay: MTS growth inhibition assay; assay type: cell-based; conditions: for IC50: EA40 cells, P-gp substrates, Table 2; for resistance profile in words: EA40 vs MDA-MB-435 / EA150
Method: as §3, with “performed. […]” for “performed.”
as §4

[1] = MDA/T0.3 cells, P-gp substrates, Table 2, read-out: IC50

| Compound | resistance profile in words (KB-8511 cells) | resistance profile in words (315/sc5.9 cells) | resistance profile in words (297/C5/0 cells) | resistance profile in words (298/D4/40 cells) | RF (resistance factor: IC50 resistant cell line / IC50 parental KB-31) (KB-8511 cells) | RF (resistance factor: IC50 resistant cell line / IC50 parental KB-31) (315/sc5.9 cells) | RF (resistance factor: IC50 resistant cell line / IC50 parental KB-31) (297/C5/0 cells) | RF (resistance factor: IC50 resistant cell line / IC50 parental KB-31) (298/D4/40 cells) | IC50 (MDA-MB-435 cells) [nM] | IC50 (MDA/T0.3 cells) [nM] | IC50 (EA40 cells) [nM] | IC50 (MDA/T0.3 cells; [1]) [nM] | resistance profile in words (EA40 cells) |
| --- | --- | --- | --- | --- | --- | --- | --- | --- | --- | --- | --- | --- | --- |
| CN[C@H]1CCc2cc(OC)c(OC)c(OC)c2-c2ccc(OC)c(=O)cc21 [Demecolcine, demecolcine] | resistant | slightly hypersensitive | hypersensitive | hypersensitive | – | – | – | – | – | – | – | – | – |
| C=C/C=C\[C@H](C)[C@H](OC(N)=O)[C@@H](C)[C@H](O)[C@@H](C)C/C(C)=C\[C@H](C)[C@@H](O)[C@@H](C)/C=C\[C@@H](O)C[C@@H]1OC(=O)[C@H](C)[C@@H](O)[C@H]1C [Discodermolide] | – | – | not cross-resistant | not cross-resistant | 2.8 | 1.2 | 1.3 | 0.5 | – | – | – | – | – |
| COc1cccc2c1C(=O)c1c(O)c3c(c(O)c1C2=O)C[C@@](O)(C(C)=O)C[C@@H]3O[C@H]1C[C@H](N)[C@H](O)[C@H](C)O1 [Daunorubicin] | – | – | – | – | – | – | – | – | 382 ± 101 | > 5000 | 224 ± 72 | – | – |
| COc1cccc2c1C(=O)c1c(O)c3c(c(O)c1C2=O)C[C@@](O)(C(=O)CO)C[C@@H]3O[C@H]1C[C@H](N)[C@H](O)[C@H](C)O1 [Doxorubicin, doxorubicin] | resistant | marginal cross-resistance | Neither cell line is cross-resistant | Neither cell line is cross-resistant | 48.8 | 1.8 | 1.6 | 1.2 | > 500 | – | 365 ± 200 | > 5000 | equally sensitive |
| CC[C@]1(O)C[C@H]2CN(CCc3c([nH]c4ccccc34)[C@@](C(=O)OC)(c3cc4c(cc3OC)N(C=O)[C@H]3[C@@](O)(C(=O)OC)[C@H](OC(C)=O)[C@]5(CC)C=CCN6CC[C@]43[C@@H]65)C2)C1 [Vincristine, vincristine] | – | slightly hypersensitive | – | – | – | – | – | – | 3 ± 2 | – | 4 ± 1.7 | – | equally sensitive |
| [NH2][Pt]1([NH2])[O]C(=O)C2(CCC2)C(=O)[O]1 [Paraplatine, Paraplatin] | – | – | Neither cell line is cross-resistant | very minor increase in the resistance | 0.8 | 0.7 | 1.2 | 3.8 | – | – | – | – | – |
| CC[C@]1(O)C[C@@H]2CN(CCc3c([nH]c4ccccc34)[C@@](C(=O)OC)(c3cc4c(cc3OC)N(C)[C@H]3[C@@](O)(C(=O)OC)[C@H](OC(C)=O)[C@]5(CC)C=CCN6CC[C@]43[C@@H]65)C2)C1 [Vinblastine, Vinblastine sulfate] | resistant | – | hypersensitive | hypersensitive | 162.4 | 0.6 | 0.7 | 0.2 | < 1 | – | < 1 | 14 ± 2.7 | equally sensitive |
| O=c1[nH]cc(F)c(=O)[nH]1 [5-FU, 5-Fluorouracil] | – | slightly hypersensitive | Neither cell line is cross-resistant | Neither cell line is cross-resistant | 1.1 | 0.4 | 1.2 | 0.9 | – | – | – | – | – |
